In ChEMBL document CHEMBL1150143, “Aldehyde dehydrogenase inhibitors from the mushroom Clitocybe clavipes” (J Nat Prod, 2002):

Key:
[1] = target: T1, Aldehyde dehydrogenase 1, mitochondrial (Saccharomyces cerevisiae, UniProt P22281); test: Inhibition of yeast aldehyde dehydrogenase by spectrophotometry following NADH formation at 340 nm
T1 sequence (P22281 whole entry): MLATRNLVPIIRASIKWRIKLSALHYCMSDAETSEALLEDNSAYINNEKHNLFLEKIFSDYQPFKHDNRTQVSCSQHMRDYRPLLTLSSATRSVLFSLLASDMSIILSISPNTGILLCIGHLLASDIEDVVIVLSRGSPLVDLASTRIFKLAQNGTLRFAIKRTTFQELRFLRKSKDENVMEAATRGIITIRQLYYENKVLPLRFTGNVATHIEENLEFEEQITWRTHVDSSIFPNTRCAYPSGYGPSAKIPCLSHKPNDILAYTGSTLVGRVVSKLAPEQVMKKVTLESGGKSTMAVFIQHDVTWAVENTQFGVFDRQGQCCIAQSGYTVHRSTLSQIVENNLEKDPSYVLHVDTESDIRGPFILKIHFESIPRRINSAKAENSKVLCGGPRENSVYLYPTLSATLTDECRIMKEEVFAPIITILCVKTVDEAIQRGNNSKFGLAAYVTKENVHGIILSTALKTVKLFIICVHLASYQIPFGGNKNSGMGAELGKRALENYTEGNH

[2] = target: T2, Aldehyde dehydrogenase 1, mitochondrial (Saccharomyces cerevisiae) (UniProt P22281); test: Inhibition of yeast aldehyde dehydrogenase at 0.5 mM by spectrophotometry following NADH formation at 340 nm
T2 sequence (whole entry): T1 sequence (P22281 whole entry)

| Compound | IC50 [1] [µM] | inhibition [2] [%] |
| --- | --- | --- |
| CCCCCCCC/C=C/C(=O)CCCCCCC(=O)OCC | 430 |  |
| CCCCCCCC/C=C/C(=O)CCCCCCC(=O)O | 280 |  |
| CCCCCC/C=C/C(=O)CCCCCCC(=O)OCC | 170 |  |

More lines, now with the values ahead:

| IC50 [1] [µM] | inhibition [2] [%] | Compound |
| --- | --- | --- |
|  | < 50 | CCCCCC(=O)/C=C/C=C/CCCCCCCC(=O)OCC(O)CO (stereo not given) |
|  | < 50 | CCCCC/C=C/C=C/C(=O)CCCCCCCC(=O)O |
